Consider 14 compounds from patent US11142527B2, “Dihydropyrimidine compounds and uses thereof in medicine” (SUNSHINE LAKE PHARMA CO., LTD., priority 2017, dated 2021).

One data set deals with HBV. The experiment in a line: Test of anti HBV activity in vitro (viral DNA by qPCR). Format: cell-based. To be noted: Hepatitis B virus; HepG2.2.15 cells, viral DNA in cell culture supernatant by qPCR; read-out: EC50 values of the compound of the invention on viral replication. The method in brief:
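HepG2.2.15 cells (integrated HBV genome) were grown to confluence, then treated with compound in 4-fold dilutions from 4 μM final (0.5% DMSO). Secreted viral DNA in supernatant was quantified by SYBR qPCR against an HBV plasmid standard curve; EC50 from four-parameter nonlinear regression of concentration versus copy number.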
Background: Real-time PCR tracks product formation cycle by cycle.

A short description of data set [1]: Cytotoxicity test with CellTiter Glo. Format: cell-based. Particulars: human, HepG2.2.15 cells, highest concentration 150 μM, read-out: CC50 values of the compounds of the invention. The procedure:
Test 2: Cytotoxicity and Selectivity Index
Methods of Testing Cytotoxicity and Selectivity Index
The serial diluted compound was added to a 384 wells plate at 50 μL HepG2.2.15 cell per well (3000 cells per well), the highest final concentration in the experiment is 150 μM (200 fold dilution). The plate was cultured at 37° C. in an incubator with CO2 for 4 days, and cytotoxicity of the compound was detected using CellTiter Glo agent.
The cytotoxicity of the compound was calculated using the following formulate, cytotoxicity (%)=100−(detection value/mean of DMSO control wells values×100) CC50 values were calculated by a four parametric nonlinear regression model using Graphpad Prism 5 software to manage concentration−cytotoxicity (%).

One may read the EC50 as the concentration needed to bring the measured effect to its halfway point. The term CC50 denotes the concentration giving 50% cytotoxicity. As to `COC(=O)C1=C(CN2CCN3C(=O)N(c4ccc(C5(C#N)CC5)cc4)C[C@@H]3C2)NC(c2nccs2)=N[C@H]1c1ccc(F)cc1Cl` [Example 26], the EC50 in the data set on HBV came out at 0.001 µM. Further, in data set [1], the 50% cytotoxic concentration (CC50) at 4 days was above 150 µM.

Regarding `COC(=O)C1=C(CN2CCN3C(=O)N(c4ccc(-c5ccc(C(=O)O)c(F)c5)c(F)c4)C[C@@H]3C2)NC(c2nccs2)=N[C@H]1c1ccc(F)cc1Cl` [Example 34, 4′-((S)-7-(((R)-6-(2-chloro-4-fluorophenyl)-5-(methoxycarbonyl)-2-(thiazol-2-yl)-3,6-dihydropyrimidin-4-yl)methyl)-3-oxohexahydroimidazo[1,5-a]pyrazin-2(3H)-yl)-2′,3-difluoro-[1,1′-diphenyl]-4-carboxylic acid], in the data set with HBV, the EC50 worked out at 0.007 µM. Further, the CC50 at 4 days in data set [1] was above 150 µM.

On to `COC(=O)C1=C(CN2CCN3C(=O)N(c4cc(F)cc(-c5ccc(C(=O)O)c(F)c5)c4)C[C@@H]3C2)NC(c2nccs2)=N[C@H]1c1ccc(F)cc1Cl` [Example 119], for which the EC50 with HBV came out at 0.0156 µM. Further, the CC50 at 4 days in data set [1] was above 150 µM.

For the compound `COC(=O)C1=C(CN2CCN3C(=O)N(c4ccnc(-c5ccc(C(=O)O)cc5)c4)C[C@@H]3C2)NC(c2nccs2)=N[C@H]1c1ccc(F)cc1Cl` [Example 123, 4-(4-((S)-7-(((R)-6-(2-chloro-4-fluorophenyl)-5-(methoxycarbonyl)-2-(thiazol-2-yl)-3,6-dihydropyrimidin-4-yl)methyl)-3-oxohexahydroimidazo[1,5-a]pyrazin-2(3H)-yl)pyridin-2-yl)benzoic acid], the 50% effective concentration (EC50) with HBV was 0.0379 µM. Moreover, the CC50 at 4 days in data set [1] is above 150 µM.

As for `COC(=O)C1=C(CN2CCN3C(=O)N(c4cc(F)cc(N5CCC(C(=O)O)CC5)c4)C[C@@H]3C2)NC(c2nccs2)=N[C@H]1c1ccc(F)cc1Cl` [Example 32, 1-(3-((S)-7-(((R)-6-(2-chloro-4-fluorophenyl)-5-(methoxycarbonyl)-2-(thiazol-2-yl)-3,6-dihydropyrimidin-4-yl)methyl)-3-oxohexahydroimidazo[1,5-a]pyrazin-2(3H)-yl)-5-fluorophenyl)piperidine-4-carboxylic acid], the concentration for a half-maximal effect (EC50) in the data set with HBV turned out to be 0.006 µM. Moreover, in data set [1], the CC50 at 4 days was above 150 µM.

For the compound `COC(=O)C1=C(CN2CCN3C(=O)N(c4cc(F)cc(-c5ccc(C(=O)O)cc5)c4)C[C@@H]3C2)NC(c2nccs2)=N[C@H]1c1ccc(F)cc1Cl` [Example 117, 3′-((S)-7-(((R)-6-(2-chloro-4-fluorophenyl)-5-(methoxycarbonyl)-2-(thiazol-2-yl)-3,6-dihydroprimidin-4-yl)methyl)-3-oxohexahydroimidazo[1,5-a]pyrazin-2(3H)-yl)-5′-fluoro-[1,1′-biphenyl]-4-carboxylic acid], the EC50 in the data set on HBV was 0.0188 µM. Moreover, the CC50 at 4 days in data set [1] is above 150 µM.

Take `COC(=O)C1=C(CN2CCN3C(=O)N(Cc4ccc(Oc5ccc(C#N)cc5)cc4)C[C@@H]3C2)NC(c2nccs2)=N[C@H]1c1ccc(F)cc1Cl` [Example 102, (R)-methyl 4-(2-chloro-4-fluorophenyl)-6-(((S)-2-(4-(4-cyanophenoxy)benzyl)-3-oxohexahydroimidazo[1,5-a]pyrazin-7(1H)-yl)methyl)-2-(thiazol-2-yl)-1,4-dihydropyrimidine-5-carboxylate]: in the data set on HBV, the EC50 was found to be 0.0042 µM. Further, the CC50 at 4 days in data set [1] is above 150 µM.

With `COC(=O)C1=C(CN2CCN3C(=O)N(c4ccc(=O)n(-c5ccc(C(=O)O)cc5F)c4)C[C@@H]3C2)NC(c2nccs2)=N[C@H]1c1ccc(F)cc1Cl` [Example 80, 4-(5-((S)-7-(((R)-6-(2-chloro-4-fluorophenyl)-5-(methoxycarbonyl)-2-(thiazol-2-yl)-3,6-dihydropyrimidin-4-yl)methyl)-3-oxohexahydroimidazo[1,5-a]pyrazin-2(3H)-yl)-2-oxopyridin-1(2H)-yl)-3-fluorobenzoic acid], the EC50 in the data set with HBV was determined as 0.0158 µM. The CC50 at 4 days in data set [1] was above 150 µM.

With `COC(=O)C1=C(CN2CCN3C(=O)N(c4ccc(Oc5cc(F)cc(C(=O)O)c5)cn4)C[C@@H]3C2)NC(c2nccs2)=N[C@H]1c1ccc(F)cc1Cl` [Example 79, 3-((6-((S)-7-(((R)-6-(2-chloro-4-fluorophenyl)-5-(methoxycarbonyl)-2-(thiazol-2-yl)-3,6-dihydropyrimidin-4-yl)methyl)-3-oxohexahydroimidazo[1,5-a]pyrazin-2(3H)-yl)pyridin-3-yl)oxy)-5-fluorobenzoic acid], the EC50 with HBV amounted to 0.029 µM. Also, the CC50 at 4 days in data set [1] was above 150 µM.

As to `COC(=O)C1=C(CN2CCN3C(=O)N(c4nc(-c5ccc(C(C)(C)C(=O)O)cc5)cs4)C[C@@H]3C2)NC(c2nccs2)=N[C@H]1c1ccc(F)cc1Cl` [Example 17, 2-(4-(2-((S)-7-(((R)-6-(2-chloro-4-fluorophenyl)-5-(methoxycarbonyl)-2-(thiazol-2-yl)-3,6-dihydropyrimidin-4-yl)methyl)-3-oxohexahydroimidazo[1,5-a]pyrazin-2(3H)-yl)thiazol-4-yl)phenyl)-2-methylpropionic acid], the EC50 in the data set with HBV was determined as 0.006 µM. Also, the CC50 at 4 days in data set [1] is above 150 µM.

Consider `COC(=O)C1=C(CN2CCN3C(=O)N(c4cc(F)cc(-c5ccc(C(=O)O)cc5F)c4)C[C@@H]3C2)NC(c2nccs2)=N[C@H]1c1ccc(F)cc1Cl` [Example 118, 3′-((S)-7-(((R)-6-(2-chloro-4-fluorophenyl)-5-(methoxycarbonyl)-2-(thiazol-2-yl)-3,6-dihydropyrimidin-4-yl)methyl)-3-oxohexahydroimidazo[1,5-a]pyrazin-2(3H)-yl)-2,5′-difluoro-[1,1′-biphenyl]-4-carboxylic acid], for which the EC50 in the data set on HBV turned out to be 0.0089 µM. For the same compound, the CC50 at 4 days in data set [1] is above 150 µM.

On to `COC(=O)C1=C(CN2CCN3C(=O)N(c4nc(-c5ccc(C(=O)O)c(F)c5)cs4)C[C@@H]3C2)NC(c2nccs2)=N[C@H]1c1ccc(F)cc1Cl` [Example 137, 4-(2-((S)-7-(((R)-6-(2-chloro-4-fluorophenyl)-5-(methoxycarbonyl)-2-(thiazol-2-yl)-3,6-dihydropyrimidin-4-yl)methyl)-3-oxohexahydroimidazo[1,5-a]pyrazin-2(3H)-yl)thiazol-4-yl)-2-fluorobenzoic acid], for which the EC50 with HBV was 0.01 µM. In addition, the CC50 at 4 days in data set [1] was above 150 µM.

On to `COC(=O)C1=C(CN2CCN3C(=O)N(c4ccc(Oc5ccc(CO)cc5)cc4)C[C@@H]3C2)NC(c2nccs2)=N[C@H]1c1ccc(F)cc1Cl` [Example 99, (R)-methyl 4-(2-chloro-4-fluorophenyl)-6-(((S)-2-(4-(4-(hydroxymethyl)phenoxy)phenyl)-3-oxohexahydroimidazo[1,5-a]pyrazin-7(1H)-yl)methyl)-2-(thiazol-2-yl)-1,4-dihydropyrimidine-5-carboxylate], for which the 50% effective concentration (EC50) with HBV was determined as 0.0126 µM. In data set [1], the CC50 at 4 days was above 150 µM.

Regarding `COC(=O)C1=C(CN2CCN3C(=O)N(c4ccc(Oc5ccc(C(=O)N6CCOC[C@@H]6CCC(=O)O)cc5)cc4)C[C@@H]3C2)NC(c2nccs2)=N[C@H]1c1ccc(F)cc1Cl` [Example 73, 3-((S)-4-(4-(4-((S)-7-(((R)-6-(2-chloro-4-fluorophenyl)-5-(methoxycarbonyl)-2-(thiazol-2-yl)-3,6-dihydropyrimidin-4-yl)methyl)-3-oxohexahydroimidazo[1,5-a]pyrazin-2(3H)-yl)phenoxy)benzoyl)morpholin-3-yl)propanoic acid], the 50% cytotoxic concentration (CC50) at 4 days in data set [1] is above 150 µM.
